Measured values published in patent publication US20250250237A1, “ALKYLAMINE OR HETEROALKYLAMINE DERIVATIVES AS INHIBITORS OF NITRIC OXIDE SYNTHASES (NOS), PHARMACEUTICAL PRODUCTS THEREOF, AND METHODS THEREOF” (Gacter Inc., priority 2022, published 2025).
Converted amounts (≈) assume the structure as drawn.

Tests used:
[1] = system: mice; conditions: doses as low as 10 mg/kg; cited from earlier work
[2] = system: rats; conditions: doses as low as 10 mg/kg; cited from earlier work
[3] = Kinetic solubility assay (HPLC external standard); format: physicochemical; conditions: PBS pH 7.4 with 2% DMSO, PBS pH 7.4, 2% DMSO, 37° C.
Protocol: This kinetic solubility assay assesses our compounds in pH 7.4 PBS, mimicking physiological conditions relevant to oral absorption and tumor targeting. Test solutions were prepared by mixing 10 μL of stock with 490 μL of PBS (pH 7.4, 2% DMSO), followed by shaking at 37° C. for 3 hours, centrifugation, and a 2× dilution with methanol. Solubility was quantified in μM using HPLC analysis on a C18 column at 35° C., with a 5-85% acetonitrile gradient and 20 μL injections, performed in duplicate.
The assay was conducted using a modified HPLC-based external standard method. For Solution Preparation, (1) Buffer: Phosphate-buffered saline (PBS) at pH 7.4; (2) Compound Stock Solutions: 10 mM concentration in DMSO; (3) Test Solutions: Mix 10 μL of the stock solution with 490 μL of PBS in a 2 mL EP tube (final 2% DMSO v/v), shake at 37° C. for 3 hours, centrifuge at 12,000 RPM for 5-10 minutes, take 100 μL of supernatant, add 100 μL methanol, mix well to use as the test solution. […] For Data Analysis, concentration calculations are based on peak area ratios, accounting for the 2× dilution factor.

Row | Structure (SMILES) | solubility at 3 h [3] | acute toxicity [1] | acute toxicity [2]
1 | N=C(N)SCCc1ccc(CCSC(=N)N)cc1 [PBIT, S,S′-1,4-phenylene-bis(1,2-ethanediyl)bis-isothiourea] |  | acutely toxic | acutely toxic
2 | OCCNCC[C@@H](Oc1cc(Cl)cc2[nH]cnc12)c1ccccc1 [GT-6060, (R)-2-((3-((6-chloro-1H-benzo[d]imidazol-4-yl)oxy)-3-phenylpropyl)amino) ethan-1-ol] | 176 µM (≈ 60.8 µg/mL) |  | 
3 | NCC[C@@H](Oc1cc(Cl)cc2[nH]cnc12)c1ccccc1 [GT-6041, (R)-3-((6-chloro-1H-benzo[d]imidazol-4-yl)oxy)-3-phenylpropan-1-amine] | 157 µM (≈ 47.3 µg/mL) |  | 

Second part, led by results:

Row | solubility at 3 h [3] | Structure (SMILES) | acute toxicity [1] | acute toxicity [2]
4 | 188 µM (≈ 56.9 µg/mL) | NCC[C@@H](Oc1cc(Cl)cc2[nH]ncc12)c1ccccc1 [GT-6045] |  | 
5 | 177 µM (≈ 55.8 µg/mL) | CNCC[C@@H](Oc1cc(Cl)cc2[nH]cnc12)c1ccccc1 [GT-6058, (R)-3-((6-chloro-1H-benzo[d]imidazol-4-yl)oxy)—N-methyl-3-phenylpropan-1-amine] |  | 
6 | 169 µM (≈ 53.5 µg/mL) | CNCC[C@@H](Oc1cc(Cl)cc2[nH]ncc12)c1ccccc1 [GT-6059, (R)-3-((6-chloro-1H-indazol-4-yl)oxy)—N-methyl-3-phenylpropan-1-amine] |  | 
